How the values were obtained:
[1] = tested on: SH-SY5Y cells; test: MTT cytotoxicity of the five lignans; assay type: cell-based
Description: Human neuroblastoma SH-SY5Y cells were purchased from the American Type Culture Collection (ATCC, Manassas, Va., USA) and cultured in a humidified 5% (v/v) CO2 atmosphere in 37° C. in Dulbecco's Modified Eagle Medium (DMEM) (Life technologies, NY, USA) supplemented with 10% FBS, 1% penicillin (100 U/mL) and streptomycin (100 μg/mL). All experiments were carried out 48 h after the cells were seeded.
Cell viability was determined by 3-(4,5-dimethyl-2-thiazolyl) 2,5-diphenyl-2H-tetrazolium bromide (MTT) assay (Sigma-Aldrich, USA). SH-SY5Y cells were seeded in 96-well plates (1×10^4 cells/well) for 48 h. SH-SY5Y cells were pre-treated with different concentrations of the five lignans (i.e. Schizandrin A, Schizandrin B, SC, Schizandrol A and SchiA) for 12 h and the cell viability was checked by MTT assay. Otherwise, SH-SY5Y cells were pre-treated with different concentrations of the five lignans for 12 h and then exposed to 400 μM 6-OHDA for 4 h. Cells were incubated at 37° C. for 4 h in 0.5 mg/mL MTT solution (prepared in serum free DMEM medium). The medium was then removed, and 100 μL of DMSO was added to each well to dissolve the violet-formazan crystals. The absorbance at 570 nm with 655 nm as a reference wavelength was measured by a multi-label counter (Wallac VICTOR3TMV, Perkin Elmer, Netherlands). Cell viability was expressed as a percentage of the value of the cells without 6-OHDA treatment. The LC50 and EC50 were calculated by GraphPad Prism V5.0 (GraphPad Software, Inc., San Diego, Calif.).
To evaluate the cytotoxicity of five selected lignans of S. chinensis, SH-SY5Y cells were treated with various concentrations of the tested compounds for 12 h and the cell viability was measured using the MTT assay.
To evaluate the cytotoxicity of five selected lignans of S. chinensis, SH-SY5Y cells were treated with various concentrations of the tested compounds for 12 h and the cell viability was measured using the MTT assay. […] To further study the neuroprotective activities of the five lignans in vitro, cells were treated with various concentrations of the tested compounds for 12 h before exposed to MPP^+. […] Values represent mean±S.D. ###P<0.005 versus control group; *p<0.05, **p<0.01 and *** p<0.005 versus MPP group. […] The therapeutic index of SchiA and SC were 14.9 and 8.8, respectively.

[2] = tested on: DA neurons in zebrafish; test: Anti-TH whole-mount immunostaining, 6-OHDA-induced DA neuron loss; assay type: in vivo; details: 10 μM co-treatment, 250 μM 6-OHDA, 2 days
Description: The wild type zebrafish was used for this study.
Zebrafish at one dpf were exposed to 250 μM 6-OHDA in the presence or absence of 10 μM Schi A or 3 μM nomifensine (Nom, a DAT (dopamine transporter) inhibitor used as a positive control) for 2 days. Then zebrafish were collected for immunostaining to detect the DA neurons. Zebrafish were fixed in 4% paraformaldehyde in PBS for 30 min, rinsed, and stored at −20° C. in 100% MtOH. Whole-mount immunostaining was done by standard methods (Zhang, Cheang et al. 2011). Briefly, paraformaldehyde fixed samples were blocked (2% goat serum and 0.1% BSA in PBST,) for 1 h at room temperature. A mouse monoclonal anti-tyrosine hydroxylase antibody (1:200 diluted in blocking buffer) was used as the primary antibody and incubated overnight with the sample at 4° C. […] Semi-quantification TH^+ cells were assessed by an investigator blinded to drug treatment history of zebrafish using Image-Pro Plus 6.0 software (Media Cybernetics, Silver Spring, Md., USA). Results are expressed as percentage of area of TH^+ cells in untreated control group.
To further evaluate the neuroprotective effect of SchiA in vivo, the inventors examined the DA neurons in zebrafish by whole-mount immunofluorescent staining with an antibody against tyrosine hydroxylase (TH). […] Data is expressed as percentage of the control group. […]

[3] = Blood brain barrier experiment; assay type: in vivo, rat
Description: To investigate the capability of permeation of blood brain barrier (BBB). On the experimental day, heart perfusion was chosen to clear blood interference at brain under 10% chloralic hydras (i.p. 250 mg/kg) anesthesia, and brain was collected at scheduled time after dosing.
Brain tissues were thawed and homogenized in precooled saline (at the 1:2 g:ml ratio). 250 μl of homogenized solution was added 200 μl acetonitrile and 150 μl methanol. After vortexing for 20 s, centrifugations at 12,000 rpm for 10 min were for the separation. The denatured protein was separated and the supernatant was collected and filtered through a 0.22 μm membrane. A 20 μl volume of the supernatant was injected into HPLC for analysis.
Quantitative analysis of SchiA was completed on an Agilent series 1260 HPLC apparatus (Agilent Technologies, Santa Clara, Calif., USA) equipped with a vacuum degasser, a quaternary pump, a manual sampler and an ultraviolet detector. RP Phenonenex C-18 column (250 mm×4.6 mm, 5 μm) was used to separate at 35° C. with a mobile phase of water and methanol (83:17, v/v). The flow rate was 1 ml/min. The monitoring wavelength of SchiA was 230 nm.
And then non-compartmental model of DAS 2.0 program was chosen to calculate the major pharmacokinetic parameters.
The treatment of brain disorders drugs should pass through the blood-brain barrier (BBB) to regulate certain receptors in the CNS for producing effect. Thus the inventors examined whether SchiA could pass BBB. […] Generally, drug distribution was depends on the free drug concentration in plasma which could affect the supply to the target disuse. […] P-gp, functioning as an ATP-dependent drug pump, efficiently extrudes intracellular drugs out of cells, especially anticancer drugs. After oral administrated to plasma, lots of SchiA were combined at intestines and hardly entered into brain by passing through the barrier of P-gp. But after an i.v. bolus injection, SchiA which liked an impact was directly entered into systemic circulation and P-gp was saturated with SchiA speedily and SchiA couldn't stay at brain as long as plasma despite the concentration was considerable. Therefore, it is rationalized the SchiA passed through BBB caused by i.v. and it has been hypothesized that P-gp is the major determinant of SchiA pharmacokinetics.

COc1cc2c(c(OC)c1OC)-c1c(cc3c(c1OC)OCO3)C[C@H](C)[C@](C)(O)[C@H]2OC(=O)c1ccccc1 [SchiA, Schisantherin A]
CC50 [1]: 121 µM
6-OHDA-induced dopaminergic neuron loss (area of TH+ cells) [2]: attenuate the dopaminergic neuron loss induced by 6-OHDA almost to the normal level
concentration in brain as % of concentration in plasma ([3]; half an hour post-i.v. bolus injection): 54.5%
ability to pass the BBB in vivo ([3]; i.v.): able to traverse the BBB in vivo
detection in brain samples ([3]; i.v., up to 6 h): wasn't detected
detection in brain ([3]; oral administration): wasn't detected

— patent US20150366839A1, “Schisantherin A for the treatment of neurodegenerative diseases” (priority 2014, published 2015)
